Test system: HSP72 in SK-OV-3 cells
Test: Cell-based ELISA (Cellisa) assay, SK-OV-3 cells: inhibition of 17-AAG-induced HSP72
Conditions: SK-OV-3 cells (Examples 169-218)
Experimental: U2OS cells (5-8×10^4 cells/mL) or SK-OV-3 cells (5-8×10^4 cells/mL) were seeded into 96-well plates and incubated at 37° C. for 48 h. Compounds were then added at a range of concentrations and incubated for 1 h before addition of 17-AAG (250 nM). Cells were then incubated for 18 h. The medium was removed washed 2× with PBS and cells were then fixed with fixing solution (4% paraformaldehyde, 0.3% TritonX-100 in PBS) for 30 min at 4° C. The plates were then washed 2× with PBS before blocking with 5% milk for 30 min at 37° C. After washing the plates 4× with 0.1% Tween-20/deionised water, HSP72 antibody (SPA-810, Enzo Life) was added for 1.5 h at 37° C. Following 4× washes, the plates were incubated with europium-labelled anti-mouse antibody (0.6 ug/ml) in Delfia assay buffer (Perkin Elmer) for 1 h at 37° C. After washing the plates, Delfia enhancement solution was added, shaken for 10 min before reading in the Envision plate reader (Perkin-Elmer) with excitation at 340 nm and emission at 615 nm. The plates were washed again before protein determination using the bicinchoninic acid assay (BCA assay, Pierce Biotechnology). The europium counts were normalised for the amount of protein in each well. The 50% inhibitory concentration value of the compound was then calculated.

Compound: CCN1CCN(Cc2ccc3cc(C(=O)Nc4cc(NC(=O)c5ccc6c(c5)OCCO6)ccc4F)ccc3n2)[C@H](C)C1 [Example 212, (R)—N-(5-(2,3-dihydrobenzo[b][1,4]dioxine-6-carboxamido)-2-fluorophenyl)-2-((4-ethyl-2-methylpiperazin-1-yl)methyl)quinoline-6-carboxamide]
- IC50 (Homo sapiens): 85 nM

Compound: O=C(Nc1ccc(Cl)c(NC(=O)c2ccc3nc(CN4CCN(C5CC5)CC4)ccc3c2)c1)c1ccc2c(c1)OCCO2 [Example 194, N-(2-chloro-5-(2,3-dihydrobenzo[b][1,4]dioxine-6-carboxamido)phenyl)-2-((4-cyclopropylpiperazin-1-yl)methyl)quinoline-6-carboxamide]
- IC50 (Homo sapiens): 213 nM

Compound: Cc1ccc(NC(=O)c2ccc3c(c2)OCCO3)cc1NC(=O)c1ccc2nc(CN3CC[C@H](F)C3)ccc2c1 [Example 207, (S)—N-(5-(2,3-dihydrobenzo[b][1,4]dioxine-6-carboxamido)-2-methylphenyl)-2-((3-fluoropyrrolidin-1-yl)methyl)quinoline-6-carboxamide]
- IC50 (Homo sapiens): 80 nM

Compound: C[C@@H]1CCCN1Cc1ccc2cc(C(=O)Nc3cc(NC(=O)c4ccc5c(c4)OCCO5)ccc3F)ccc2n1 [Example 176, (R)—N-(5-(2,3-dihydrobenzo[b][1,4]dioxine-6-carboxamido)-2-fluorophenyl)-2-((2-methylpyrrolidin-1-yl)methyl)quinoline-6-carboxamide]
- IC50 (Homo sapiens): 313 nM

Compound: O=C(Nc1ccc(F)c(NC(=O)c2ccc3nc(CN4CCN(C5CC5)CC4)ccc3c2)c1)c1ccc2c(c1)OCCO2 [Example 178, 2-((4-cyclopropylpiperazin-1-yl)methyl)-N-(5-(2,3-dihydrobenzo[b][1,4]dioxine-6-carboxamido)-2-fluorophenyl)quinoline-6-carboxamide]
- IC50 (Homo sapiens): 44 nM

Compound: CCN1CCN(C(C)c2ccc3cc(C(=O)Nc4cc(NC(=O)c5ccc6c(c5)OCCO6)ccc4F)ccc3n2)CC1 (stereo not shown) [Example 214, N-(5-(2,3-dihydrobenzo[b][1,4]dioxine-6-carboxamido)-2-fluorophenyl)-2-(1-(4-ethylpiperazin-1-yl)ethyl)quinoline-6-carboxamide]
- IC50 (Homo sapiens): 957 nM

Compound: CCN1CCN(Cc2ccc3cc(C(=O)Nc4cc(NC(=O)c5ccc6c(c5)OCCO6)ccc4Br)ccc3n2)CC1 [Example 215, N-(2-bromo-5-(2,3-dihydrobenzo[b][1,4]dioxine-6-carboxamido)phenyl)-2-((4-ethylpiperazin-1-yl)methyl)quinoline-6-carboxamide]
- IC50 (Homo sapiens): 39 nM

Compound: CN1CCN(Cc2ccc3cc(C(=O)Nc4cc(NC(=O)c5ccc6c(c5)OCCO6)ccc4F)ccc3n2)CC1 [Example 173, N-(5-(2,3-dihydrobenzo[b][1,4]dioxine-6-carboxamido)-2-fluorophenyl)-2-((4-methylpiperazin-1-yl)methyl)quinoline-6-carboxamide]
- IC50 (Homo sapiens): 100 nM

Compound: CC1(C)CN(Cc2ccc3cc(C(=O)Nc4cc(NC(=O)c5ccc6c(c5)OCCO6)ccc4F)ccc3n2)C1 [Example 183, N-(5-(2,3-dihydrobenzo[b][1,4]dioxine-6-carboxamido)-2-fluorophenyl)-2-((3,3-dimethylazetidin-1-yl)methyl)quinoline-6-carboxamide]
- IC50 (Homo sapiens): 131 nM

Compound: CC1CCCN1Cc1ccc2cc(C(=O)Nc3cc(NC(=O)c4ccc5c(c4)OCCO5)ccc3F)ccc2n1 (racemic) [Example 190, (rac)-N-(5-(2,3-dihydrobenzo[b][1,4]dioxine-6-carboxamido)-2-fluorophenyl)-2-((2-methylpyrrolidin-1-yl)methyl)quinoline-6-carboxamide]
- IC50 (Homo sapiens): 267 nM

Compound: O=C(Nc1ccc(F)c(NC(=O)c2ccc3nc(CN4CCCCC4)ccc3c2)c1)c1ccc2c(c1)OCCO2 [Example 172, N-(5-(2,3-dihydrobenzo[b][1,4]dioxine-6-carboxamido)-2-fluorophenyl)-2-(piperidin-1-ylmethyl)quinoline-6-carboxamide]
- IC50 (Homo sapiens): 675 nM

Compound: 2-((4-(sec-butyl)piperazin-111)methyl)-N-(5-(2,3-dihydrobenzo[b][1,4]dioxine-6-carboxamido)-2-fluorophenyl)quinoline-6-carboxamide [Example 179]
- IC50: 19 nM

Compound: Cc1ccc(NC(=O)c2ccc3c(c2)OCCO3)cc1NC(=O)c1ccc2nc(CN3CCCCC3)ccc2c1 [Example 209, N-(5-(2,3-dihydrobenzo[b][1,4]dioxine-6-carboxamido)-2-methylphenyl)-2-(piperidin-1-ylmethyl)quinoline-6-carboxamide]
- IC50 (Homo sapiens): 208 nM

Reference: patent US9701664B2, “Fused 1,4-dihydrodioxin derivatives as inhibitors of heat shock transcription factor 1” (Cancer Research Technology Limited, priority 2013, dated 2017)
